Experiments:
[1] = system: HUVECs (Human umbilical vein endothelial cells); assay: Inhibitory effects on HUVEC tube formation; format: cell-based; conditions: for inhibitory effect on HUVEC tube formation: 50 uM; for Tube formation: 50 μM;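 on tube formation: from minus no inhibition up to plus-plus-plus complete inhibition versus vehicle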
Experimental: The Inhibitory effects of the compounds of the formula 1 on angiogenesis were meassured by the vascular tube formation assay of HUVECs (Human umbilical vein endothelial cells), which is one of the major angiogenic steps.
HUVECs were isolated from human umbilical vein, and cultured. HUVECs within passage 5 from confluent cultures were detached, and plated onto a layer of a bFGF (basic fibroblast growth factor)-reduced and polymerized Matrigel. Matrigel cultures were incubated with or without the compounds of formula 1, and the changes of cell morphology were captured through a phase contrast microscope and photographed.

SPF SD rats = conditions: rat, in vivo, po;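 further: Six-week-old animals, two per group, followed across an observation period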

Row | Compound | inhibitory effect on HUVEC tube formation [1] | Tube formation [1] | clinical symptoms, body weight and mortality (SPF SD rats)
1 | COC(OC)[C@]1(C)Oc2ccc([N+](=O)[O-])cc2[C@H](N(Cc2ncc[nH]2)c2ccc(Cl)cc2)[C@H]1O [Example 3, (2R,3R,4S)-3,4-dihydro-2-dimethoxymethyl-3-hydroxy-2-methyl-6-nitro-4-[N-(4-chlorophenyl)-N-(1H-imidazol-2-ylmethyl)amino]-2H-1-benzopyran] | strongly inhibited | ++ | no significant changes
2 | COC(OC)[C@]1(C)Oc2ccc([N+](=O)[O-])cc2[C@@H](N(Cc2ncc[nH]2)c2ccc(Cl)cc2)[C@@H]1O [Example 4, (2R,3S,4R)-3,4-dihydro-2-dimethoxymethyl-3-hydroxy-2-methyl-6-nitro-4-[N-(4-chlorophenyl)-N-(1H-imidazol-2-ylmethyl)amino]-2H-1-benzopyran] | – | + | no significant changes
3 | COC(OC)[C@@]1(C)Oc2ccc([N+](=O)[O-])cc2[C@@H](N(Cc2ncc[nH]2)c2ccc(C(F)(F)F)cc2)[C@@H]1O [Example 5, (2S,3S,4R)-3,4-dihydro-2-dimethoxymethyl-3-hydroxy-2-methyl-6-nitro-4-[N-(4-trifluoromethylphenyl)-N-(1H-imidazol-2-ylmethyl)amino]-2H-1-benzopyran] | strongly inhibited | ++ | no significant changes
4 | COC(OC)[C@@]1(C)Oc2ccc([N+](=O)[O-])cc2[C@@H](N(Cc2ncc[nH]2)c2ccc(OC(F)(F)F)cc2)[C@@H]1O [Example 7, (2S,3S,4R)-3,4-dihydro-2-dimethoxymethyl-3-hydroxy-2-methyl-6-nitro-4-[N-(4-trifluoromethoxyphenyl)-N-(1H-imidazol-2-ylmethyl)amino]-2H-1-benzopyran] | – | + | no significant changes
5 | COC(OC)[C@@]1(C)Oc2ccc([N+](=O)[O-])cc2[C@@H](N(Cc2ncc[nH]2)c2ccc(Br)cc2)[C@@H]1O [Example 8, (2S,3S,4R)-3,4-dihydro-2-dimethoxymethyl-3-hydroxy-2-methyl-6-nitro-4-[N-(4-bromophenyl)-N-(1H-imidazol-2-ylmethyl)amino]-2H-1-benzopyran] | – | + | no significant changes
6 | COC(OC)[C@@]1(C)Oc2ccc([N+](=O)[O-])cc2[C@@H](N(Cc2ncc[nH]2)c2ccc(C)cc2C)[C@@H]1O [Example 9, (2S,3S,4R)-3,4-dihydro-2-dimethoxymethyl-3-hydroxy-2-methyl-6-nitro-4-[N-(2,4-dimethylphenyl)-N-(1H-imidazol-2-ylmethyl)amino]-2H-1-benzopyran] | – | + | no significant changes
7 | COC(OC)[C@@]1(C)Oc2ccc([N+](=O)[O-])cc2[C@@H](N(Cc2ncc[nH]2)c2ccccc2C(C)C)[C@@H]1O [Example 10, (2S,3S,4R)-3,4-dihydro-2-dimethoxymethyl-3-hydroxy-2-methyl-6-nitro-4-[N-(2-isopropylphenyl)-N-(1H-imidazol-2-ylmethyl)amino]-2H-1-benzopyran] | strongly inhibited | ++ | no significant changes
8 | COC(OC)[C@@]1(C)Oc2ccc([N+](=O)[O-])cc2[C@@H](N(Cc2ncc[nH]2)c2cccc(C)c2C)[C@@H]1O [Example 11, (2S,3S,4R)-3,4-dihydro-2-dimethoxymethyl-3-hydroxy-2-methyl-6-nitro-4-[N-(2,3-dimethylphenyl)-N-(1H-imidazol-2-ylmethyl)amino]-2H-1-benzopyran] | – | – | no significant changes
9 | COC(OC)[C@@]1(C)Oc2ccc([N+](=O)[O-])cc2[C@@H](N(Cc2ncc[nH]2)c2ccc(F)cc2)[C@@H]1O [Example 15, (2S,3S,4R)-3,4-dihydro-2-dimethoxymethyl-3-hydroxy-2-methyl-6-nitro-4-[N-(4-fluorophenyl)-N-(1H-imidazol-2-ylmethyl)amino]-2H-1-benzopyran] | – | – | no significant changes
10 | COc1ccccc1N(Cc1ncc[nH]1)[C@@H]1c2cc([N+](=O)[O-])ccc2O[C@](C)(C(OC)OC)[C@H]1O [Example 16, (2S,3S,4R)-3,4-dihydro-2-dimethoxymethyl-3-hydroxy-2-methyl-6-nitro-4-[N-(2-methoxyphenyl)-N-(1H-imidazol-2-ylmethyl)amino]-2H-1-benzopyran] | – | – | no significant changes
11 | COC(OC)[C@]1(C)Oc2ccc([N+](=O)[O-])cc2[C@H](N(Cc2ncc[nH]2)c2ccccc2C(C)C)[C@H]1O [Example 17, (2R,3R,4S)-3,4-dihydro-2-dimethoxymethyl-3-hydroxy-2-methyl-6-nitro-4-[N-(2-isopropylphenyl)-N-(1H-imidazol-2-ylmethyl)amino]-2H-1-benzopyran] | – | – | no significant changes
12 | COc1ccccc1N(Cc1ncc[nH]1)[C@H]1c2cc([N+](=O)[O-])ccc2O[C@@](C)(C(OC)OC)[C@@H]1O [Example 18, (2R,3R,4S)-3,4-dihydro-2-dimethoxymethyl-3-hydroxy-2-methyl-6-nitro-4-[N-(2-methoxyphenyl)-N-(1H-imidazol-2-ylmethyl)amino]-2H-1-benzopyran] | – | – | no significant changes
13 | COC(OC)[C@]1(C)Oc2ccc([N+](=O)[O-])cc2[C@H](N(Cc2ncc[nH]2)c2cccc(Cl)c2)[C@H]1O [Example 19, (2R,3R,4S)-3,4-dihydro-2-dimethoxymethyl-3-hydroxy-2-methyl-6-nitro-4-[N-(3-chlorophenyl)-N-(1H-imidazol-2-ylmethyl)amino]-2H-1-benzopyran] | – | – | no significant changes
14 | COC(OC)[C@@]1(C)Oc2ccc([N+](=O)[O-])cc2[C@@H](N(Cc2ncc[nH]2)c2cccc(Cl)c2)[C@@H]1O [Example 20, (2S,3S,4R)-3,4-dihydro-2-dimethoxymethyl-3-hydroxy-2-methyl-6-nitro-4-[N-(3-chlorophenyl)-N-(1H-imidazol-2-ylmethyl)amino]-2H-1-benzopyran] | – | – | no significant changes
15 | COC(OC)[C@]1(C)Oc2ccc([N+](=O)[O-])cc2[C@H](N(Cc2ncc[nH]2)c2ccc(OC(F)(F)F)cc2)[C@H]1O [Example 21, (2R,3R,4S)-3,4-dihydro-2-dimethoxymethyl-3-hydroxy-2-methyl-6-nitro-4-[N-(4-trifluoromethoxyphenyl)-N-(1H-imidazol-2-ylmethyl)amino]-2H-1-benzopyran] | – | – | no significant changes
16 | COC(OC)[C@@]1(C)Oc2ccc(N)cc2[C@@H](N(Cc2ncc[nH]2)c2cccc(C)c2C)[C@@H]1O [Example 30, (2S,3S,4R)-6-amino-3,4-dihydro-2-dimethoxymethyl-3-hydroxy-2-methyl-4-[N-(2,3-dimethylphenyl)-N-(1H-imidazol-2-ylmethyl)amino]-2H-1-benzopyran] | – | – | no significant changes
17 | COc1ccccc1N(Cc1ncc[nH]1)[C@@H]1c2cc(N)ccc2O[C@](C)(C(OC)OC)[C@H]1O [Example 31, (2S,3S,4R)-6-amino-3,4-dihydro-2-dimethoxymethyl-3-hydroxy-2-methyl-4-[N-(2-methoxyphenyl)-N-(1H-imidazol-2-ylmethyl)amino]-2H-1-benzopyran] | – | – | no significant changes
18 | COc1ccc(N(Cc2ncc[nH]2)[C@@H]2c3cc(N)ccc3O[C@](C)(C(OC)OC)[C@H]2O)cc1 [Example 32, (2S,3S,4R)-6-amino-3,4-dihydro-2-dimethoxymethyl-3-hydroxy-2-methyl-4-[N-(4-methoxyphenyl)-N-(1H-imidazol-2-ylmethyl)amino]-2H-1-benzopyran] | – | – | no significant changes
19 | COC(OC)[C@@]1(C)Oc2ccc(N)cc2[C@@H](N(Cc2ncc[nH]2)c2ccc(C)cc2C)[C@@H]1O [Example 33, (2S,3S,4R)-6-amino-3,4-dihydro-2-dimethoxymethyl-3-hydroxy-2-methyl-4-[N-(2,4-dimethylphenyl)-N-(1H-imidazol-2-ylmethyl)amino]-2H-1-benzopyran] | – | – | no significant changes
20 | COC(OC)[C@@]1(C)Oc2ccc(N)cc2[C@@H](N(Cc2ncc[nH]2)c2ccccc2C(C)C)[C@@H]1O [Example 34, (2S,3S,4R)-6-amino-3,4-dihydro-2-dimethoxymethyl-3-hydroxy-2-methyl-4-[N-(2-isopropylphenyl)-N-(1H-imidazol-2-ylmethyl)amino]-2H-1-benzopyran] | – | – | no significant changes
21 | COC(OC)[C@@]1(C)Oc2ccc(N)cc2[C@@H](N(Cc2ncc[nH]2)c2ccc(OC(F)(F)F)cc2)[C@@H]1O [Example 35, (2S,3S,4R)-6-amino-3,4-dihydro-2-dimethoxymethyl-3-hydroxy-2-methyl-4-[N-(4-trifluoromethoxyphenyl)-N-(1H-imidazol-2-ylmethyl)amino]-2H-1-benzopyran] | – | – | no significant changes
22 | COC(OC)[C@@]1(C)Oc2ccc(N)cc2[C@@H](N(Cc2ncc[nH]2)c2ccc(Br)cc2)[C@@H]1O [Example 36, (2S,3S,4R)-6-amino-3,4-dihydro-2-dimethoxymethyl-3-hydroxy-2-methyl-4-[N-(4-bromophenyl)-N-(1H-imidazol-2-ylmethyl)amino]-2H-1-benzopyran] | – | – | no significant changes
23 | COC(OC)[C@@]1(C)Oc2ccc(N)cc2[C@@H](N(Cc2ncc[nH]2)c2ccc(F)cc2)[C@@H]1O [Example 37, (2S,3S,4R)-6-amino-3,4-dihydro-2-dimethoxymethyl-3-hydroxy-2-methyl-4-[N-(4-fluorophenyl)-N-(1H-imidazol-2-ylmethyl)amino]-2H-1-benzopyran] | – | – | no significant changes
